Test system: Ipomea hederaceae (IPOHE)
Experiment: Post-emergence biological efficacy, glasshouse pot test
Format: in vivo
Details: Ipomoea hederacea, 312 h, 1000 g/ha, after 13 days, 100=total damage, 0=no damage, read-out: Percentage damage caused to weed species IPONE
Procedure, shortened: (§1)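 Species sown in soil and grown 8 days in glasshouse (24/16 °C day/night, 14 h light, 65% humidity), then sprayed with compound in acetone/water (50:50) with 0.5% Tween 20 at 250 or 1000 g/ha. Damage scored visually after 13 days (0 = none, 100 = total).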
CCOC(=O)c1nc(-c2ccccn2)nc(N)c1Cl [Compound 3-149, 4-amino-5-chloro-6-ethoxycarbonyl-2-pyridin-2-ylpyrimidine] gave a pest or weed control at 1000 g/ha of 0%. In the case of O=C(O)c1nc(-c2ccccn2)nc(Cl)c1Cl [Compound 61-149, 4,5-dichloro-2-pyridin-2-ylpyrimidine-6-carboxylic acid], the pest or weed control at 1000 g/ha is reported as 0%. With C=Cc1c(N)nc(-c2ccc(Cl)nc2)nc1C(=O)OC [Compound 68-156, 4-amino-2-(6-chloropyridin-3-yl)-5-ethenyl-6-methoxycarbonyl-pyrimidine] the pest or weed control at 1000 g/ha was 50%.

Test system: Amaranthus retroflexus (AMARE)
Experiment: as above
Format: in vivo
Details: 312 h, 1000 g/ha, after 13 days, 100=total damage, 0=no damage, read-out: Percentage damage caused to weed species AMARE
Procedure, shortened: as §1
Work on CCOC(=O)c1nc(-c2ccccn2)nc(N)c1Cl [Compound 3-149, 4-amino-5-chloro-6-ethoxycarbonyl-2-pyridin-2-ylpyrimidine] yielded a pest or weed control at 1000 g/ha of 0%. Work on O=C(O)c1nc(-c2ccccn2)nc(Cl)c1Cl [Compound 61-149, 4,5-dichloro-2-pyridin-2-ylpyrimidine-6-carboxylic acid] yielded a pest or weed control at 1000 g/ha of 0%. C=Cc1c(N)nc(-c2ccc(Cl)nc2)nc1C(=O)OC [Compound 68-156, 4-amino-2-(6-chloropyridin-3-yl)-5-ethenyl-6-methoxycarbonyl-pyrimidine] showed a pest or weed control at 1000 g/ha of 100%.

Test system: Alopecurus myosuroides (ALOMY)
Experiment: as above
Format: in vivo
Details: 312 h, 1000 g/ha, after 13 days, 100=total damage, 0=no damage, read-out: Percentage damage caused to weed species ALOMY
Procedure, shortened: as §1
CCOC(=O)c1nc(-c2ccccn2)nc(N)c1Cl [Compound 3-149, 4-amino-5-chloro-6-ethoxycarbonyl-2-pyridin-2-ylpyrimidine] gave a pest or weed control at 1000 g/ha of 0%. Compound O=C(O)c1nc(-c2ccccn2)nc(Cl)c1Cl [Compound 61-149, 4,5-dichloro-2-pyridin-2-ylpyrimidine-6-carboxylic acid] has a pest or weed control at 1000 g/ha of 0%. For C=Cc1c(N)nc(-c2ccc(Cl)nc2)nc1C(=O)OC [Compound 68-156, 4-amino-2-(6-chloropyridin-3-yl)-5-ethenyl-6-methoxycarbonyl-pyrimidine], the pest or weed control at 1000 g/ha was 0%.

Test system: Setaria faberi (SETFA)
Experiment: as above
Format: in vivo
Details: 312 h, 1000 g/ha, after 13 days, 100=total damage, 0=no damage, read-out: Percentage damage caused to weed species SETFA
Procedure, shortened: as §1
CCOC(=O)c1nc(-c2ccccn2)nc(N)c1Cl [Compound 3-149, 4-amino-5-chloro-6-ethoxycarbonyl-2-pyridin-2-ylpyrimidine] gave a pest or weed control at 1000 g/ha of 0%. O=C(O)c1nc(-c2ccccn2)nc(Cl)c1Cl [Compound 61-149, 4,5-dichloro-2-pyridin-2-ylpyrimidine-6-carboxylic acid] gave a pest or weed control at 1000 g/ha of 0%. In the case of C=Cc1c(N)nc(-c2ccc(Cl)nc2)nc1C(=O)OC [Compound 68-156, 4-amino-2-(6-chloropyridin-3-yl)-5-ethenyl-6-methoxycarbonyl-pyrimidine], the pest or weed control at 1000 g/ha is reported as 0%.

Test system: Echinochloa crus-galli (ECHCG)
Experiment: as above
Format: in vivo
Details: 312 h, 1000 g/ha, after 13 days, 100=total damage, 0=no damage, read-out: Percentage damage caused to weed species ECHCG
Procedure, shortened: as §1
Work on CCOC(=O)c1nc(-c2ccccn2)nc(N)c1Cl [Compound 3-149, 4-amino-5-chloro-6-ethoxycarbonyl-2-pyridin-2-ylpyrimidine] yielded a pest or weed control at 1000 g/ha of 0%. For O=C(O)c1nc(-c2ccccn2)nc(Cl)c1Cl [Compound 61-149, 4,5-dichloro-2-pyridin-2-ylpyrimidine-6-carboxylic acid], the pest or weed control at 1000 g/ha was 0%. Work on C=Cc1c(N)nc(-c2ccc(Cl)nc2)nc1C(=O)OC [Compound 68-156, 4-amino-2-(6-chloropyridin-3-yl)-5-ethenyl-6-methoxycarbonyl-pyrimidine] yielded a pest or weed control at 1000 g/ha of 0%.

Test system: Solanum nigrum (SOLNI)
Experiment: as above
Format: in vivo
Details: 312 h, 1000 g/ha, after 13 days, 100=total damage, 0=no damage, read-out: Percentage damage caused to weed species SOLNI
Procedure, shortened: as §1
CCOC(=O)c1nc(-c2ccccn2)nc(N)c1Cl [Compound 3-149, 4-amino-5-chloro-6-ethoxycarbonyl-2-pyridin-2-ylpyrimidine] gave a pest or weed control at 1000 g/ha of 0%. In the case of O=C(O)c1nc(-c2ccccn2)nc(Cl)c1Cl [Compound 61-149, 4,5-dichloro-2-pyridin-2-ylpyrimidine-6-carboxylic acid], the pest or weed control at 1000 g/ha is reported as 40%. C=Cc1c(N)nc(-c2ccc(Cl)nc2)nc1C(=O)OC [Compound 68-156, 4-amino-2-(6-chloropyridin-3-yl)-5-ethenyl-6-methoxycarbonyl-pyrimidine] gave a pest or weed control at 1000 g/ha of 90%.

Test system: Ipomea hederaceae (IPOHE)
Experiment: Pre-emergence biological efficacy, glasshouse pot test
Format: in vivo
Details: Ipomoea hederacea, 312 h, 1000 g/ha, after 13 days, 100=total damage, 0=no damage, read-out: Percentage damage caused to weed species IPOHE
Procedure, shortened: (§2)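 Pots sown with weed seeds, sprayed 1 day after sowing with test compound in acetone/water (50:50) plus 0.5% Tween 20 at 250 or 1000 g/ha. Plants grown in glasshouse at 24/16° C day/night, 14 h light, 65% humidity, watered twice daily. Damage scored visually after 13 days (0 = none, 100 = total).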
Work on CCOC(=O)c1nc(-c2ccccn2)nc(N)c1Cl [Compound 3-149, 4-amino-5-chloro-6-ethoxycarbonyl-2-pyridin-2-ylpyrimidine] yielded a pest or weed control at 1000 g/ha of 0%. Compound O=C(O)c1nc(-c2ccccn2)nc(Cl)c1Cl [Compound 61-149, 4,5-dichloro-2-pyridin-2-ylpyrimidine-6-carboxylic acid] has a pest or weed control at 1000 g/ha of 0%. C=Cc1c(N)nc(-c2ccc(Cl)nc2)nc1C(=O)OC [Compound 68-156, 4-amino-2-(6-chloropyridin-3-yl)-5-ethenyl-6-methoxycarbonyl-pyrimidine] showed a pest or weed control at 1000 g/ha of 40%.

Test system: Amaranthus retroflexus (AMARE)
Experiment: as above
Format: in vivo
Details: 312 h, 1000 g/ha, after 13 days, 100=total damage, 0=no damage, read-out: Percentage damage caused to weed species AMARE
Procedure, shortened: as §2
CCOC(=O)c1nc(-c2ccccn2)nc(N)c1Cl [Compound 3-149, 4-amino-5-chloro-6-ethoxycarbonyl-2-pyridin-2-ylpyrimidine] showed a pest or weed control at 1000 g/ha of 0%. Work on O=C(O)c1nc(-c2ccccn2)nc(Cl)c1Cl [Compound 61-149, 4,5-dichloro-2-pyridin-2-ylpyrimidine-6-carboxylic acid] yielded a pest or weed control at 1000 g/ha of 0%. With C=Cc1c(N)nc(-c2ccc(Cl)nc2)nc1C(=O)OC [Compound 68-156, 4-amino-2-(6-chloropyridin-3-yl)-5-ethenyl-6-methoxycarbonyl-pyrimidine] the pest or weed control at 1000 g/ha was 100%.

Test system: Alopecurus myosuroides (ALOMY)
Experiment: as above
Format: in vivo
Details: 312 h, 1000 g/ha, after 13 days, 100=total damage, 0=no damage, read-out: Percentage damage caused to weed species ALOMY
Procedure, shortened: as §2
For CCOC(=O)c1nc(-c2ccccn2)nc(N)c1Cl [Compound 3-149, 4-amino-5-chloro-6-ethoxycarbonyl-2-pyridin-2-ylpyrimidine], the pest or weed control at 1000 g/ha was 0%. In the case of O=C(O)c1nc(-c2ccccn2)nc(Cl)c1Cl [Compound 61-149, 4,5-dichloro-2-pyridin-2-ylpyrimidine-6-carboxylic acid], the pest or weed control at 1000 g/ha is reported as 0%. With C=Cc1c(N)nc(-c2ccc(Cl)nc2)nc1C(=O)OC [Compound 68-156, 4-amino-2-(6-chloropyridin-3-yl)-5-ethenyl-6-methoxycarbonyl-pyrimidine] the pest or weed control at 1000 g/ha was 10%.

Test system: Setaria faberi (SETFA)
Experiment: as above
Format: in vivo
Details: 312 h, 1000 g/ha, after 13 days, 100=total damage, 0=no damage, read-out: Percentage damage caused to weed species SETFA
Procedure, shortened: as §2
CCOC(=O)c1nc(-c2ccccn2)nc(N)c1Cl [Compound 3-149, 4-amino-5-chloro-6-ethoxycarbonyl-2-pyridin-2-ylpyrimidine] gave a pest or weed control at 1000 g/ha of 0%. Compound O=C(O)c1nc(-c2ccccn2)nc(Cl)c1Cl [Compound 61-149, 4,5-dichloro-2-pyridin-2-ylpyrimidine-6-carboxylic acid] has a pest or weed control at 1000 g/ha of 0%. C=Cc1c(N)nc(-c2ccc(Cl)nc2)nc1C(=O)OC [Compound 68-156, 4-amino-2-(6-chloropyridin-3-yl)-5-ethenyl-6-methoxycarbonyl-pyrimidine] showed a pest or weed control at 1000 g/ha of 10%.

Test system: Echinochloa crus-galli (ECHCG)
Experiment: as above
Format: in vivo
Details: 312 h, 1000 g/ha, after 13 days, 100=total damage, 0=no damage, read-out: Percentage damage caused to weed species ECHCG
Procedure, shortened: as §2
For CCOC(=O)c1nc(-c2ccccn2)nc(N)c1Cl [Compound 3-149, 4-amino-5-chloro-6-ethoxycarbonyl-2-pyridin-2-ylpyrimidine], the pest or weed control at 1000 g/ha was 0%. Work on O=C(O)c1nc(-c2ccccn2)nc(Cl)c1Cl [Compound 61-149, 4,5-dichloro-2-pyridin-2-ylpyrimidine-6-carboxylic acid] yielded a pest or weed control at 1000 g/ha of 0%. C=Cc1c(N)nc(-c2ccc(Cl)nc2)nc1C(=O)OC [Compound 68-156, 4-amino-2-(6-chloropyridin-3-yl)-5-ethenyl-6-methoxycarbonyl-pyrimidine] showed a pest or weed control at 1000 g/ha of 0%.

Test system: Solanum nigrum (SOLNI)
Experiment: as above
Format: in vivo
Details: 312 h, 1000 g/ha, after 13 days, 100=total damage, 0=no damage, read-out: Percentage damage caused to weed species SOLNI
Procedure, shortened: as §2
For CCOC(=O)c1nc(-c2ccccn2)nc(N)c1Cl [Compound 3-149, 4-amino-5-chloro-6-ethoxycarbonyl-2-pyridin-2-ylpyrimidine], the pest or weed control at 1000 g/ha was 0%. In the case of O=C(O)c1nc(-c2ccccn2)nc(Cl)c1Cl [Compound 61-149, 4,5-dichloro-2-pyridin-2-ylpyrimidine-6-carboxylic acid], the pest or weed control at 1000 g/ha is reported as 0%. Compound C=Cc1c(N)nc(-c2ccc(Cl)nc2)nc1C(=O)OC [Compound 68-156, 4-amino-2-(6-chloropyridin-3-yl)-5-ethenyl-6-methoxycarbonyl-pyrimidine] has a pest or weed control at 1000 g/ha of 40%.

Test system: not given
Experiment: not given
Details: not given
In the case of CCOC(=O)c1nc(-c2ccccn2)nc(N)c1Cl [Compound 3-149, 4-amino-5-chloro-6-ethoxycarbonyl-2-pyridin-2-ylpyrimidine], the melting point is reported as 176 to 180 °C (dec.). Compound C=Cc1c(N)nc(-c2ccc(Cl)nc2)nc1C(=O)OC [Compound 68-156, 4-amino-2-(6-chloropyridin-3-yl)-5-ethenyl-6-methoxycarbonyl-pyrimidine] has a melting point of 194 to 195 °C.

From US20110136666A1, “CHEMICAL COMPOUNDS” (SYNGENTA CROP PROTECTION, INC., priority 2008, published 2011)
